Key:
[1] = Cytotoxicity against RBEC assessed as cell survival at 20 uM after 24 hrs by MTT assay; format: toxicity; details: rat, RBEC cells; read-out: Survival
[2] = Cytotoxicity against RBEC assessed as decrease in cell viability after 24 hrs by MTT assay; format: toxicity; details: rat, RBEC cells
[3] = Drug degradation in phosphate buffer at pH 7.4 measured up to 25 mins by UV-Vis spectral analysis; format: physicochemical; details: for Stability: buffer, pH 7.4, 25 min
[4] = Cell cycle arrest in RBEC cells assessed as accumulation at G2/M phase at 20 uM after 24 hrs by flow cytometric analysis; format: cell-based; details: rat
[5] = Increase in p53 expression in RBEC at 20 uM after 24 hrs by Western blot analysis; format: ADME; details: rat
[6] = Decrease in Cdc2 expression in RBEC at 20 uM after 24 hrs by Western blot analysis; details: rat
[7] = Induction of apoptosis in HUCCA cells at 20 uM after 24 hrs by annexin V/propidium iodide staining based flow cytometry (reference value: 9.6%); format: functional, Homo sapiens
[8] = Induction of apoptosis in RBEC at 20 uM after 24 hrs by annexin V/propidium iodide staining based flow cytometry (reference value: 2.3%); details: rat
[9] = Induction of apoptosis in human QBC939 cells at 20 uM after 24 hrs by annexin V/propidium iodide staining based flow cytometry (reference value: 2.21%); format: functional
[10] = Cytotoxicity against HUCCA cells assessed as decrease in cell viability after 24 hrs by MTT assay; format: functional, cell-based; details: Homo sapiens
[11] = Cytotoxicity against human QBC939 cells assessed as decrease in cell viability after 24 hrs by MTT assay; format: functional, cell-based; details: QBC939, 24 h
[12] = Cytotoxicity against human HL7702 cells assessed as decrease in cell viability after 24 hrs by MTT assay; format: functional, cell-based; details: L02, 24 h
[13] = Cytotoxicity against HIBEC assessed as decrease in cell viability after 24 hrs by MTT assay; format: toxicity; details: human, HIBEC cells
[14] = Cell cycle arrest in HUCCA cells assessed as accumulation at G2/M phase after 24 hrs by flow cytometric analysis; format: functional, cell-based; details: Homo sapiens
[15] = Cell cycle arrest in human QBC939 cells assessed as accumulation at G2/M phase after 24 hrs by flow cytometric analysis; format: functional, cell-based
[16] = Cell cycle arrest in RBEC cells assessed as accumulation at G2/M phase after 24 hrs by flow cytometric analysis; format: ADME, cell-based; details: rat
HUCCA [17] = test: Increase in p53 expression in HUCCA cells after 24 hrs by Western blot analysis; format: functional, cell-based; details: Homo sapiens
[18] = Decrease in Cdc2 expression in HUCCA cells after 24 hrs by Western blot analysis; format: functional, cell-based; details: Homo sapiens
[19] = Increase in p53 expression in RBEC after 24 hrs by Western blot analysis; details: rat
[20] = Decrease in Cdc2 expression in RBEC after 24 hrs by Western blot analysis; format: ADME; details: rat
QBC939 [21] = test: Increase in p53 expression in human QBC939 cells after 24 hrs by Western blot analysis; format: functional, cell-based
[22] = Decrease in Cdc2 expression in human QBC939 cells after 24 hrs by Western blot analysis; format: functional, cell-based
[23] = Induction of apoptosis in HUCCA cells at 5 uM after 24 hrs by annexin V/propidium iodide staining based flow cytometry (reference value: 9.6%); format: functional, Homo sapiens
[24] = Induction of apoptosis in HUCCA cells at 7.5 uM after 24 hrs by annexin V/propidium iodide staining based flow cytometry (reference value: 9.6%); format: functional, Homo sapiens
[25] = Induction of apoptosis in HUCCA cells at 10 uM after 24 hrs by annexin V/propidium iodide staining based flow cytometry (reference value: 9.6%); format: functional, Homo sapiens
[26] = Induction of apoptosis in RBEC at 5 uM after 24 hrs by annexin V/propidium iodide staining based flow cytometry (reference value: 2.3%); details: rat
[27] = Induction of apoptosis in RBEC at 7.5 uM after 24 hrs by annexin V/propidium iodide staining based flow cytometry (reference value: 2.3%); details: rat
[28] = Induction of apoptosis in RBEC at 10 uM after 24 hrs by annexin V/propidium iodide staining based flow cytometry (reference value: 2.3%); details: rat
[29] = Induction of apoptosis in human QBC939 cells at 5 uM after 24 hrs by annexin V/propidium iodide staining based flow cytometry (reference value: 2.21%); format: functional
[30] = Induction of apoptosis in human QBC939 cells at 7.5 uM after 24 hrs by annexin V/propidium iodide staining based flow cytometry (reference value: 2.21%); format: functional
[31] = Induction of apoptosis in human QBC939 cells at 10 uM after 24 hrs by annexin V/propidium iodide staining based flow cytometry (reference value: 2.21%); format: functional
HUCCA [32] = test: Induction of apoptosis in HUCCA cells after 24 hrs by annexin V/propidium iodide staining based flow cytometry; format: functional, cell-based; details: Homo sapiens
[33] = Induction of apoptosis in RBEC after 24 hrs by annexin V/propidium iodide staining based flow cytometry; details: rat
QBC939 [34] = test: Induction of apoptosis in human QBC939 cells after 24 hrs by annexin V/propidium iodide staining based flow cytometry; format: functional, cell-based
HUCCA [35] = test: Induction of apoptosis in HUCCA cells assessed as increase in Bax protein expression after 24 hrs by Western blot analysis; format: functional, cell-based; details: Homo sapiens
[36] = Induction of apoptosis in RBEC assessed as increase in Bax protein expression after 24 hrs by Western blot analysis; details: rat
QBC939 [37] = test: Induction of apoptosis in human QBC939 cells assessed as increase in Bax protein expression after 24 hrs by Western blot analysis; format: functional, cell-based
HUCCA [38] = test: Induction of apoptosis in HUCCA cells assessed as decrease in Bcl-2 protein expression after 24 hrs by Western blot analysis; format: functional, cell-based; details: Homo sapiens
[39] = Induction of apoptosis in RBEC assessed as decrease in Bcl-2 protein expression after 24 hrs by Western blot analysis; details: rat
QBC939 [40] = test: Induction of apoptosis in human QBC939 cells assessed as decrease in Bcl-2 protein expression after 24 hrs by Western blot analysis; format: functional, cell-based
HUCCA [41] = test: Induction of apoptosis in HUCCA cells assessed as decrease in PARP cleavage after 24 hrs by Western blot analysis; format: functional, cell-based; details: Homo sapiens

C=CCc1cc(/C=C2\CN(CCC)C/C(=C\c3cc(OC)c(OC)cc3OC)C2=O)ccc1O
viability at 24 h, 20 µM [1]: < 50%

C=CCc1cc(/C=C2\CC/C(=C\c3ccc(O)c(CC=C)c3)C2=O)ccc1O
IC50 at 24 h [2]: 10.7 µM
Stability [3]: Stable

C=CCc1cc(/C=C2\CCC/C(=C\c3ccc(O)c(CC=C)c3)C2=O)ccc1O
viability at 24 h, 20 µM [1]: < 50%

C=CCc1cc(/C=C2\CN(S(=O)(=O)CCC)C/C(=C\c3ccc(O)c(CC=C)c3)C2=O)ccc1O
viability at 24 h, 20 µM [1]: < 50%

COc1cc(/C=C/C(=O)CC(=O)/C=C/c2ccc(O)c(OC)c2)ccc1O [CURCUMIN]
degraded at 25 min ([3]; phosphate buffer, pH 7.4, read-out: Drug degradation): 50%
Activity [4]: Non-Toxic
Activity [5]: Non-Toxic
Activity [6]: Non-Toxic
Activity [7]: 21.7%
Activity [8]: 27.6%
Activity [9]: 18.5%

C=CCc1cc(/C=C2\CN(C(C)C)C/C(=C\c3ccc(O)c(CC=C)c3)C2=O)ccc1O
viability at 24 h, 20 µM [1]: < 50%

O=c1[nH]cc(F)c(=O)[nH]1 [FLUOROURACIL]
IC50 [10]: 13.4 µM
IC50 [11]: 16.1 µM
IC50 at 24 h [2]: 19.3 µM

C=CCc1cc(/C=C2\COC/C(=C\c3ccc(O)c(CC=C)c3)C2=O)ccc1O
IC50 at 24 h [2]: 15 µM
viability at 24 h, 20 µM [1]: < 50%
Stability [3]: Stable

C=CCc1cc(/C=C2\CN(C3CC3)C/C(=C\c3ccc(O)c(CC=C)c3)C2=O)ccc1O
IC50 at 24 h [2]: 14.4 µM
viability at 24 h, 20 µM [1]: < 50%

C=CCc1cc(/C=C2\CN(C(=O)c3ccccc3)C/C(=C\c3ccc(O)c(CC=C)c3)C2=O)ccc1O
viability at 24 h, 20 µM [1]: < 50%

C=CCc1cc(/C=C2\CSC/C(=C\c3ccc(O)c(CC=C)c3)C2=O)ccc1O
IC50 [10]: 8.7 µM
IC50 [11]: 9.3 µM
IC50 at 24 h [2]: 8.1 to 8.9 µM
IC50 [12]: 9.7 µM
IC50 at 24 h [13]: 9.8 µM
viability at 24 h, 20 µM [1]: < 50%
Stability [3]: Stable
Activity [14]: Dose-dependent effect
Activity [15]: Dose-dependent effect
Activity [16]: Dose-dependent effect
Activity (HUCCA [17]): Dose-dependent effect
Activity [18]: Dose-dependent effect
Activity [19]: Dose-dependent effect
Activity [20]: Dose-dependent effect
Activity (QBC939 [21]): Dose-dependent effect
Activity [22]: Dose-dependent effect
Activity [23]: 19.4%
Activity [24]: 31.8%
Activity [25]: 41.6%
Activity [26]: 9.3%
Activity [27]: 13.9%
Activity [28]: 39.9%
Activity [29]: 7.6%
Activity [30]: 15.8%
Activity [31]: 38.6%
Activity (HUCCA [32]): Dose-dependent effect
Activity [33]: Dose-dependent effect
Activity (QBC939 [34]): Dose-dependent effect
Activity (HUCCA [35]): Dose-dependent effect
Activity [36]: Dose-dependent effect
Activity (QBC939 [37]): Dose-dependent effect
Activity (HUCCA [38]): Dose-dependent effect
Activity [39]: Dose-dependent effect
Activity (QBC939 [40]): Dose-dependent effect
Activity (HUCCA [41]): Dose-dependent effect

C=CCc1cc(/C=C2\CNC/C(=C\c3ccc(O)c(CC=C)c3)C2=O)ccc1O
viability at 24 h, 20 µM [1]: < 50%

C=CCc1cc(/C=C2\CN(C3CC3)C/C(=C\c3ccc(OC(C)(C)C)cc3)C2=O)ccc1O
viability at 24 h, 20 µM [1]: < 50%

Reference: ChEMBL document CHEMBL3872235, “Synthesis and biological evaluation of allylated mono-carbonyl analogues of curcumin (MACs) as anti-cancer agents for cholangiocarcinoma” (Bioorg Med Chem Lett, 2016)
